# Patent US8129357B2, “Method of making and using an adenosine analogue” (Academia Sinica, priority 2006, dated 2012)
# “Also recorded” adds a separate entry of the source.
# Columns and labels:
# A2A-R = molecular target: T1, A2A-R (Rattus norvegicus, UniProt P30543); assay: Cellular cAMP content of ST14A cells; assay type: cell-based; settings: for intracellular cAMP level: 20 min at RT, CGS21680 10 μM, T1-C 10 μM, T1-11 26.8 μM
# T1 construct: treating ST14A cells (Ehrlich, et al. (2001)) with either T1-C or T1-11 also elevated the intracellular cAMP level; endogenous in cells; host or cells: ST14A striatal progenitor cell line
# T1 sequence (P30543 whole entry): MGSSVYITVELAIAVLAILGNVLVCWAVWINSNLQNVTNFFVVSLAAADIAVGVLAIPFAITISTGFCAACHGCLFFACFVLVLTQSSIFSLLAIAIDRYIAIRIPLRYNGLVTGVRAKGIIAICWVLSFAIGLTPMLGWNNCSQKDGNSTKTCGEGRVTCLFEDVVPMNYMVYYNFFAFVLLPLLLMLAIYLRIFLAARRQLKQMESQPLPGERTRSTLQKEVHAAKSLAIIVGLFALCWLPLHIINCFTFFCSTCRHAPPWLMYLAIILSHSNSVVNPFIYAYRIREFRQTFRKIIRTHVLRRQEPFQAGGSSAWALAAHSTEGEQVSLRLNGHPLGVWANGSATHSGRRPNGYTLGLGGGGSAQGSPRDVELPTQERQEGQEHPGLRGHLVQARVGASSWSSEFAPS
# BV2 cells = assay: LPS-evoked iNOS induction and NO production in BV2 cells; assay type: cell-based
# R6/2 mice [1] = assay: Rotarod performance (motor coordination) in R6/2 mice; assay type: in vivo, mouse; settings: drinking water from the age of 4 weeks, T1-C 0.5 mg/mL, T1-11 0.05 mg/mL
# Text: Male R6/2 mice and littermate controls were mated to female control mice (B6CBAFI/J). Mice were obtained from Jackson Laboratories, Bar Harbor, Me., USA. Offspring were identified by the PCR genotyping technique of genomic DNA extracted from tail tissues using primers located in the transgene (5′-[…]-3′ (SEQ ID NO: 1) and 5′-[…]-3′ (SEQ ID NO: 2)) to ensure that the number of CAG repeats remained approximately 150. In total, 67 R6/2 transgenic mice were used in this study. Animals were housed at the Institute of Biomedical Sciences Animal Care Facility under a 12-h light/dark cycle. Daily injections of the indicated reagent were given between 13:00 and 18:00. Body weights of mice were recorded once daily, prior to diet administration. Animal experiments were performed under protocols approved by the Academia Sinica Institutional Animal Care and Utilization Committee, Taiwan.
# Motor coordination was assessed using a rotarod apparatus (UGO BASILE, Comerio, Italy) at a constant speed (12 rpm) over the period of 2 min (Carter, et al. (1999)). All mice were trained for 2 days at the age of 6 weeks to allow them to become acquainted with the rotarod apparatus. Animals were then tested three times per week from the ages of 7 to 12 weeks. For each test, animals were placed in the apparatus before initiation of rotation. Latency to falling was automatically recorded. […]
# [2] = tested on: primary astrocytes from wildtype (WT) and R6/2-J2 mice; assay: LPS-induced iNOS expression and NO production in primary astrocytes; assay type: cell-based, mouse; settings: primary astrocytes from WT and R6/2-J2 mice
# Description: Primary astrocytes were purified from neonatal (1-2-day old) brains of R6/2 HD mice (Mangiarini, L., et al., Exon 1 of the HD gene with an expanded CAG repeat is sufficient to cause a progressive neurological phenotype in transgenic mice. Cell 87, 493-506 (1996)) and their littermates as the WT control. In brief, the cortexes were carefully removed, digested with 0.05% trypsin-EDTA (Gibco, Grand Island, N.Y., USA) at 37° C. for 10 min, then mechanically dissociated by gentle pipetting and passed through a 70-μm-pore nylon mesh. […] Mutant Htt expression was measured by a mouse monoclonal anti-human Htt antibody (EM48) (1:200 dilution, Chemicon International, Temecula, Calif., USA). The purity of the primary astrocyte cultures was determined by immunocytochemical staining using an antibody against an astrocyte-specific marker (GFAP, dilution 1:1000; Sigma, St. Louis, Mo., USA) or a microglia-specific marker (anti-CD11b, dilution 1:200, Serotec, Oxford, UK). […]
# Protein concentrations were determined using the Bio-Rad Protein Assay Dye Reagent Concentrate (Bio-Rad, Hercules, Calif., USA). […]
# For the measurement of NO production, cells (5×10^5 cells/well) were treated with lipopolysaccharide (LPS, 0.5 μg/ml) in the presence of the desired drug for 72 hr. […] The absorbance at 540 nm was then monitored. […]
# R6/2 mice [3] = assay: Survival / lifespan of R6/2 mice; assay type: in vivo, mouse; settings: for lifespan of R6/2 mice: drinking water from the age of 4 weeks, T1-C 0.5 mg/mL, T1-11 0.05 mg/mL; for mean survival time: mean±SEM, n=7~8, T1-C 0.5 mg/mL, T1-11 0.05 mg/mL in drinking water, control 94.9±2.5
# PC12 cells = assay: MTT assay: protection of serum-deprived PC12 cells from apoptosis; assay type: cell-based, rat; settings: 24 h treatment
# Description: PC12 cells purchased from American Type Culture Collection (ATCC, Manassas, Va., USA) were maintained in Dulbecco's Modified Eagle Medium (DMEM) supplemented with 10% horse serum and 5% fetal bovine serum and incubated in a CO2 incubator (5%) at 37° C. The striatal progenitor cell line (ST14A) was obtained from Dr. E. Cattaneo (University of Milano, Italy) and was maintained in an incubation chamber with 10% CO2-90% air at 33° C. as described previously (Ehrlich, et al. (2001)).
# PC12 cells were serum-deprived by three washes of phosphate buffered saline (PBS) and resuspended in DMEM. The suspended cells were plated on 96-well plates (1×10^4 cells/well) and treated with the indicated reagent(s). After treatment for 21 h, 3-(4,5-dimethylthiazol-2-yl)-2,5-diphenyl tetrazolium bromide (MTT) was added to the medium (0.5 mg/mL) and incubated at 37° C. for another 3 h. After discarding the medium, 100 μl dimethyl sulfoxide (DMSO) was then applied to each well to dissolve the formazan crystals and the absorbances at 570 and 630 nm in each well were measured on a micro-enzyme linked immunosorbent assay (ELISA) reader.
# Body weight of R6/2 mice = assay type: in vivo, mouse; settings: drinking water from the age of 4 weeks, T1-C 0.5 mg/mL, T1-11 0.05 mg/mL
Structure (SMILES),suppression of the cAMP response by A2A-R antagonist (A2A-R),LPS-evoked NO production (BV2 cells),LPS-evoked iNOS induction (BV2 cells),progressive deterioration of motor coordination (rotarod performance) (R6/2 mice [1]),LPS-induced inflammation (iNOS expression and NO production) [2],intracellular cAMP level (A2A-R),lifespan of R6/2 mice (R6/2 mice [3]),mean survival time (R6/2 mice [3]) [days],"protection of PC12 cells from apoptosis induced by serum withdrawal (cell viability, MTT) (PC12 cells)",body weight loss (Body weight of R6/2 mice)
"Cn1c(=O)c2c(nc(/C=C/c3cccc(Cl)c3)n2C)n(C)c1=O [CSC, reference compound]",suppressed,,,,,,,,,
"OCC1OC(n2cnc3c(NCc4ccc(O)cc4)ncnc32)C(O)C1O (stereo not shown) [T1-11, 2-(6-(4-hydroxybenzylamino)-9H-purin-9-yl)-5-(hydroxymethyl)tetrahydrofuran-3,4-diol]",,reduces,reduces,markedly delayed,effectively suppressed,elevated,elongated,104.9 ± 5.2,active; also recorded: much more potent than T1-C,ameliorated
"Oc1ccc(CSCc2ccc(O)cc2)cc1 [T1-C, 4,4′-dihydroxybenzyl sulfide]",,,,markedly delayed,,elevated,elongated,106.7 ± 4.6,active,ameliorated
